IC50 data for 19 compounds are collected here from ChEMBL document CHEMBL1134081, “MEK (MAPKK) inhibitors. Part 2: structure-activity relationships of 4-anilino-3-cyano-6,7-dialkoxyquinolines” (Bioorg Med Chem Lett, 2001).

Assay [1] addresses T1, Dual specificity mitogen-activated protein kinase kinase 1 (Homo sapiens, UniProt Q02750). The assay can be described thus: Inhibitory activity against Dual specificity mitogen-activated protein kinase kinase using direct MEK assay (which by-passes the need for activated Raf by using an activated GST-MEK).
For assay [2], the target named is T1, Dual specificity mitogen-activated protein kinase kinase 1. The assay can be described thus: Inhibitory activity against Dual specificity mitogen-activated protein kinase kinase using coupled MEK assay (which uses activated Raf to activate an inactivate GST-MEK).
The test system of assay [3] is LoVo. The assay can be described thus: Inhibition of LoVo human colon tumor cell proliferation.
The target in assay [4] is T1, Dual specificity mitogen-activated protein kinase kinase 1. The assay can be described thus: Inhibition of Dual specificity mitogen-activated protein kinase kinase in coupled activated Raf/MEK assay.
Assay [5] shares this target. Kind of assay: Inhibition of Dual specificity mitogen-activated protein kinase kinase in direct activated MEK assay.

T1 sequence (Q02750 whole entry): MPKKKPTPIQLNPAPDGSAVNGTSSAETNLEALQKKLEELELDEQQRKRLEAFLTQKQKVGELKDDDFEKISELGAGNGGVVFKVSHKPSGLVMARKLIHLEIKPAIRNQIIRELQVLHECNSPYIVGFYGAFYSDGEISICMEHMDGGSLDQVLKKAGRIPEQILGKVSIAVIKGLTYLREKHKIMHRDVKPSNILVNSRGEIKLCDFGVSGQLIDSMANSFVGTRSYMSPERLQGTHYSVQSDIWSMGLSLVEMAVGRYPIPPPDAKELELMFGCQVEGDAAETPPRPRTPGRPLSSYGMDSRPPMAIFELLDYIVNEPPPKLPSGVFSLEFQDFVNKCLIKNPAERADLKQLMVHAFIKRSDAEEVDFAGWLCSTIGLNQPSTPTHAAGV

In general, IC50 refers to the point on the concentration scale where inhibition reaches its midpoint. A higher IC50 goes with weaker potency in that assay. Consider `COc1ccc(Nc2c(C#N)cnc3cc(OC)c(OC)cc23)cc1`, for which the IC50 amounted to 3000 nM in assay [1] and 520 nM in assay [2].

Consider `COc1cc2c(Nc3ccc(SC4CCCCC4)cc3)c(C#N)cnc2cc1OCCCN1CCOCC1`, for which the IC50 turned out to be 300 nM in assay [1] and 21 nM in assay [2].

As to `COc1cc2c(Nc3ccc(CC4CCCCC4)cc3)c(C#N)cnc2cc1OCCCN1CCOCC1`, the figures for the IC50 in assay [1] and in assay [2] were 3300 nM and 200 nM, respectively.

`COc1cc2ncc(C#N)c(Nc3ccccc3Oc3ccccc3)c2cc1OC`: the IC50 in assay [1] and in assay [2] was greater than 10000 nM in each case.

Take `COc1cc2c(Nc3ccc(Cc4cccs4)cc3)c(C#N)cnc2cc1OCCCN1CCOCC1`: the values for the IC50 in assay [1] and in assay [2] were 20 nM and 4.4 nM, respectively.

With `COc1cc2c(Nc3ccc(Sc4ccccc4)cc3)c(C#N)cnc2cc1OCCCN1CCOCC1`, the IC50 in assay [3] stood at 220 nM; in assay [1], 5.7 nM; in assay [2], 1.1 nM.

As to `COc1cc2ncc(C#N)c(Nc3ccc(O)cc3)c2cc1OC`, the results for the IC50 in assay [1] and in assay [2] were 2200 nM and 550 nM, respectively.

In the case of `COc1cc2c(Nc3ccc(Cc4ccsc4)cc3)c(C#N)cnc2cc1OCCCN1CCOCC1`, the figures for the IC50 in assay [1] and in assay [2] were 23 nM and 4.2 nM, respectively.

Take `COc1ccc(Nc2c(C#N)cnc3cc(OCCCN4CCOCC4)c(OC)cc23)cc1`: the IC50 turned out to be 250 nM in assay [1] and 99 nM in assay [2].

As to `COc1cc2c(Nc3ccc(CCc4ccccc4)cc3)c(C#N)cnc2cc1OCCCN1CCOCC1`, the values for the IC50 in assay [4] and in assay [5] were 33 nM and 150 nM, respectively.

With `COc1cc2ncc(C#N)c(Nc3ccc(SC)cc3)c2cc1OC`, the values for the IC50 in assay [1] and in assay [2] were 1300 nM and 280 nM, respectively.

In the case of `COc1cc2c(Nc3ccc(Cc4ccccc4)cc3)c(C#N)cnc2cc1OCCCN1CCOCC1`, the IC50 is 210 nM in assay [3], 14 nM in assay [1] and 2.7 nM in assay [2].

Consider `COc1cc2c(Nc3ccc(Cc4ccoc4)cc3)c(C#N)cnc2cc1OCCCN1CCOCC1`, for which the IC50 in assay [1] stood at 43 nM; in assay [2], 14 nM.

As for `COc1cc2c(Nc3ccc(Cc4ccco4)cc3)c(C#N)cnc2cc1OCCCN1CCOCC1`, the IC50 in assay [1] amounted to 66 nM; in assay [2], 20 nM.

Consider `COc1cc2c(Nc3ccc(OC4CCCCC4)cc3)c(C#N)cnc2cc1OCCCN1CCOCC1`, for which the results for the IC50 in assay [1] and in assay [2] were 320 nM and 110 nM, respectively.

As for `COc1cc2ncc(C#N)c(Nc3ccc(Oc4ccc(Cl)cc4)cc3)c2cc1OC`, the IC50 came to 210 nM in assay [1] and 43 nM in assay [2].

As to `COc1cc2c(Nc3ccc(Oc4ccncc4)cc3)c(C#N)cnc2cc1OCCCN1CCOCC1`, the results for the IC50 in assay [1] and in assay [2] were 81 nM and 26 nM, respectively.

As to `COc1cc2ncc(C#N)c(Nc3ccc(Nc4ccccc4)cc3)c2cc1OC`, the IC50 turned out to be 1200 nM in assay [1] and 160 nM in assay [2].

In assay [2], `COc1cc2c(Nc3ccc(Oc4ccccc4)cc3)c(C#N)cnc2cc1OCCCN1CCOCC1` registered an IC50 of 2.4 nM.
